In general, IC50 refers to the point on the concentration scale where inhibition reaches its midpoint.

The target of experiment [1] is T1, c-Met (cytoplasmic domain) (Homo sapiens, UniProt P08581).
T1 construct: 10 ng/mL c-Met (cytoplasmic domain, Invitrogen Corporation #PV3143); purchased Invitrogen Corporation PV3143
Nature of the experiment: c-Met Kinase Assay (same methods as for ALK, with modifications). It counts as biochemical. As to conditions: 1 μM ATP (Km level), 10 ng/mL c-Met; read-out: cMet Activity (c-Met kinase inhibition, IC50 class). The method in brief: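 This plate-based kinase format uses immobilized phospholipase C-γ as substrate, phosphorylated by c-Met cytoplasmic domain (10 ng/mL) at 37° C for 15 minutes.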

Experiment [2] has as its target T2, baculovirus-expressed ALK (Homo sapiens, UniProt Q9UM73).
T2 construct: host or cells: baculovirus expression system
Nature of the experiment: ALK Kinase Assay (ELISA-type, time-resolved fluorescence). As to conditions: 1 μM ATP (Km level), 30 ng/ml ALK, 37° C., 15 minutes; read-out: ALK Activity (ALK kinase inhibition, IC50 class). It counts as biochemical. The procedure, abridged: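 Substrate coating: phospholipase C-γ, 10 μg/mL in TBS. Kinase step: 30 ng/ml ALK, 15 min, 37° C. Detection and analysis: Eu-N1 PT66 antibody, with IC50 fitted as a sigmoidal variable-slope dose-response curve.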
A general note: In an ELISA, binding on a coated surface is turned into a signal by an enzyme label.

T1 sequence (P08581 956-1390 limits assumed): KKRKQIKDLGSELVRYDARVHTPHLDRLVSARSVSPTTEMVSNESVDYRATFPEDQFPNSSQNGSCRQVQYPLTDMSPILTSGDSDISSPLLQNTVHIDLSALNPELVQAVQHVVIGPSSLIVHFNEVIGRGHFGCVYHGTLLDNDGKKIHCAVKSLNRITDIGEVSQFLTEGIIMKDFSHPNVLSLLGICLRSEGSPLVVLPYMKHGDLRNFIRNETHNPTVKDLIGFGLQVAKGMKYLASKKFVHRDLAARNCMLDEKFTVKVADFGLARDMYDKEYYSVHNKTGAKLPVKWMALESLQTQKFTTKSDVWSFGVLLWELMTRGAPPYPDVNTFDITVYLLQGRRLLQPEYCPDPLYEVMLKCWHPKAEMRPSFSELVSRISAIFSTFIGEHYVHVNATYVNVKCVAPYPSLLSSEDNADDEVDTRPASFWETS
T2 sequence (Q9UM73 19-1620): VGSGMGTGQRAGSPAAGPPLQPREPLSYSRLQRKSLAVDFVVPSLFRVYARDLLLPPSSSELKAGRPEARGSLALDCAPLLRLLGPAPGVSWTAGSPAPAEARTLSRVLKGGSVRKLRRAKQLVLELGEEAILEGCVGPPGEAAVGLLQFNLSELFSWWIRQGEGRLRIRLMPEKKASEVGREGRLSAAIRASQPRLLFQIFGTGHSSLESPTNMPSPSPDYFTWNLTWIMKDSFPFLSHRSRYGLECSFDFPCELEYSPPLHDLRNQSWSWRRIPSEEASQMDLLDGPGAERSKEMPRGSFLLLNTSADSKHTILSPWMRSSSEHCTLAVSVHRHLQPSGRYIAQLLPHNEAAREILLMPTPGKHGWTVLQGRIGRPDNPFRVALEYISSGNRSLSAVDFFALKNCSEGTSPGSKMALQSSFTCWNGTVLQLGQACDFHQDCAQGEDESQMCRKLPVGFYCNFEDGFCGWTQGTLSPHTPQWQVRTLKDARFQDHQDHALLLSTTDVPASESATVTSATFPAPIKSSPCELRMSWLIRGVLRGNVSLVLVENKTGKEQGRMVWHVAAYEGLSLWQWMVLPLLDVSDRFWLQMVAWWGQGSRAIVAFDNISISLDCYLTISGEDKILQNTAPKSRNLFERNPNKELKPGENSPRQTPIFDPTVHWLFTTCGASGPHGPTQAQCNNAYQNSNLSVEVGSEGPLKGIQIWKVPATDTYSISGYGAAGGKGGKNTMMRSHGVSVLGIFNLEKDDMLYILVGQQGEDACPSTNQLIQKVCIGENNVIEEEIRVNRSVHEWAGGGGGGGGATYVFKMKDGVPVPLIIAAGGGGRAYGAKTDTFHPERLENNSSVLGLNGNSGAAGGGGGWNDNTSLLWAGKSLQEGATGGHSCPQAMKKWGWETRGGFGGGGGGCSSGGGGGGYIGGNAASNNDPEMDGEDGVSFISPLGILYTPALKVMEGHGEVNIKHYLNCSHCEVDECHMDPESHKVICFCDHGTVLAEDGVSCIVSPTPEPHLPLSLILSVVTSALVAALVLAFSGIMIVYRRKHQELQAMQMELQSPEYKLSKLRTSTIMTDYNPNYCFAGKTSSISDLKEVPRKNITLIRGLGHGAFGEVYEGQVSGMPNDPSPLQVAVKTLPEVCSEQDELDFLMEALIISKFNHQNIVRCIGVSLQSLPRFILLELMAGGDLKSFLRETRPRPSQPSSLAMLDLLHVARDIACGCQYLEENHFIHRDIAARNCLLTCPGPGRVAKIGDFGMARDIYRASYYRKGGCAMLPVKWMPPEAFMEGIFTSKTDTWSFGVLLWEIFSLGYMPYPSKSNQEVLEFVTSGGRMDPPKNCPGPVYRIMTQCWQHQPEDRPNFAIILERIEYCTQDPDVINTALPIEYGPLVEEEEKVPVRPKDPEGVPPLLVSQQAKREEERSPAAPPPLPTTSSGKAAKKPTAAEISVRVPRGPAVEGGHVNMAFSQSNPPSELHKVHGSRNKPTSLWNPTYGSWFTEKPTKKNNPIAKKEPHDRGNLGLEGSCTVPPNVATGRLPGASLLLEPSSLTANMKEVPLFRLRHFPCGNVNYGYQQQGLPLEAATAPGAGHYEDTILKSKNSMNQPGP

For the compound `CCN1C(=O)CCCc2cc(Nc3ncc(Cl)c(Nc4ccc(N(C)C)cc4OC)n3)c(OC)cc21` [Example 1340, 7-[5-Chloro-4-(4-dimethylamino-2-methoxy-phenylamino)-pyrimidin-2-ylamino]-1-ethyl-8-methoxy-1,3,4,5-tetrahydro-benzo[b]azepin-2-one], the IC50 in experiment [1] is more than 10000 nM; in experiment [2], less than 100 nM.

`COc1cc(N(C)C)ccc1Nc1nc(Nc2ccc3c(c2)C(C)(C)CCC(=O)N3C)ncc1Cl` [Example 1342, 7-[5-Chloro-4-(4-dimethylamino-2-methoxy-phenylamino)-pyrimidin-2-ylamino]-1,5,5-trimethyl-1,3,4,5-tetrahydro-benzo[b]azepin-2-one]: the IC50 in experiment [1] is 1000 to 10000 nM; in experiment [2], less than 100 nM.

Regarding `CCN1C(=O)C(N)CCc2c1ccc(Nc1ncc(Cl)c(Nc3ccc(N(C)C)cc3OC)n1)c2OC` (stereo not shown) [Example 1343, 3-Amino-7-[5-chloro-4-(4-dimethylamino-2-methoxy-phenylamino)-pyrimidin-2-ylamino]-1-ethyl-6-methoxy-1,3,4,5-tetrahydro-benzo[b]azepin-2-one], the IC50 in experiment [1] is more than 10000 nM; in experiment [2], less than 100 nM.

Regarding `CCN1C(=O)C(N(C)C)CCc2c1ccc(Nc1ncc(Cl)c(Nc3ccccc3S(=O)(=O)N(C)C)n1)c2OC` (stereo not shown) [Example 1348, 2-[5-Chloro-2-(3-dimethylamino-1-ethyl-6-methoxy-2-oxo-2,3,4,5-tetrahydro-1H-benzo[b]azepin-7-ylamino)-pyrimidin-4-ylamino]-N,N-dimethyl-benzenesulfonamide], the IC50 was more than 10000 nM in experiment [1] and less than 100 nM in experiment [2].

For the compound `CCN1C(=O)C(N(C)C)CCc2c1ccc(Nc1ncc(Cl)c(Nc3ccccc3-n3cccn3)n1)c2OC` (stereo not shown) [Example 1349, 7-[5-Chloro-4-(2-pyrazol-1-yl-phenylamino)-pyrimidin-2-ylamino]-3-dimethylamino-1-ethyl-6-methoxy-1,3,4,5-tetrahydro-benzo[b]azepin-2-one], the IC50 in experiment [1] is more than 10000 nM; in experiment [2] it was less than 100 nM.

Regarding `CCN1C(=O)C(NC(=O)COC)CCc2c1ccc(Nc1ncc(Cl)c(Nc3ccccc3S(=O)(=O)N(C)C)n1)c2OC` (stereo not shown) [Example 1352, N-{7-[5-Chloro-4-(2-dimethylsulfamoyl-phenylamino)-pyrimidin-2-ylamino]-1-ethyl-6-methoxy-2-oxo-2,3,4,5-tetrahydro-1H-benzo[b]azepin-3-yl}-2-methoxy-acetamide], the IC50 in experiment [1] is more than 10000 nM; in experiment [2], less than 100 nM.

As for `CCN1C(=O)C(NC(=O)CN(C)C)CCc2c1ccc(Nc1ncc(Cl)c(Nc3ccccc3S(=O)(=O)N(C)C)n1)c2OC` (stereo not shown) [Example 1356, N-{7-[5-Chloro-4-(2-dimethylsulfamoyl-phenylamino)-pyrimidin-2-ylamino]-1-ethyl-6-methoxy-2-oxo-2,3,4,5-tetrahydro-1H-benzo[b]azepin-3-yl}-2-dimethylamino-acetamide], the IC50 was more than 10000 nM in experiment [1] and less than 100 nM in experiment [2].

As to `CCN1C(=O)C(NC(=O)C2CC2)CCc2c1ccc(Nc1ncc(Cl)c(Nc3ccccc3S(=O)(=O)N(C)C)n1)c2OC` (stereo not shown) [Example 1359, Cyclopropanecarboxylic acid {7-[5-chloro-4-(2-dimethylsulfamoyl-phenylamino)-pyrimidin-2-ylamino]-1-ethyl-6-methoxy-2-oxo-2,3,4,5-tetrahydro-1H-benzo[b]azepin-3-yl}-amide], the IC50 in experiment [1] is more than 10000 nM; in experiment [2], less than 100 nM.

Consider `CNC(=O)c1cccc(F)c1Nc1nc(Nc2ccc3c(c2)CCN(C[C@@H](OC)C(F)(F)F)CC3)ncc1Cl` [Example 1361, 2-{5-Chloro-2-[3-((R)-3,3,3-trifluoro-2-methoxy-propyl)-2,3,4,5-tetrahydro-1H-benzo[d]azepin-7-ylamino]-pyrimidin-4-ylamino}-3-fluoro-N-methyl-benzamide], for which the IC50 in experiment [1] and in experiment [2] was less than 100 nM throughout.

As to `CNC(=O)c1scc(C)c1Nc1nc(Nc2ccc3c(c2)CCN(CCOC)CC3)ncc1Cl` [Example 1362, 3-{5-Chloro-2-[3-(2-methoxy-ethyl)-2,3,4,5-tetrahydro-1H-benzo[d]azepin-7-ylamino]-pyrimidin-4-ylamino}-4-methyl-thiophene-2-carboxylic acid methylamide], the IC50 in experiment [1] is less than 100 nM; in experiment [2] it was 100 to 1000 nM.

`CCNC(=O)c1cccc(F)c1Nc1nc(Nc2cc3c(cc2OC)CCN(CC(=O)NC)CC3)ncc1Cl` [Example 1364, 2-[5-Chloro-2-(8-methoxy-3-methylcarbamoylmethyl-2,3,4,5-tetrahydro-1H-benzo[d]azepin-7-ylamino)-pyrimidin-4-ylamino]-N-ethyl-3-fluoro-benzamide]: the IC50 in experiment [1] is 1000 to 10000 nM; in experiment [2], less than 100 nM.

Consider `CCNC(=O)c1cccc(F)c1Nc1nc(Nc2ccc3c(c2)C(C)(C)CCC(=O)N3)ncc1Cl` [Example 1365, 2-[5-Chloro-2-(5,5-dimethyl-2-oxo-2,3,4,5-tetrahydro-1H-benzo[b]azepin-7-ylamino)-pyrimidin-4-ylamino]-N-ethyl-3-fluoro-benzamide], for which the IC50 in experiment [1] and in experiment [2] was less than 100 nM each time.

Regarding `CCNC(=O)c1cccc(F)c1Nc1nc(Nc2ccc3c(c2)C(C)(C)CCC(=O)N3C)ncc1Cl` [Example 1366, 2-[5-Chloro-2-(1,5,5-trimethyl-2-oxo-2,3,4,5-tetrahydro-1H-benzo[b]azepin-7-ylamino)-pyrimidin-4-ylamino]-N-ethyl-3-fluoro-benzamide], the IC50 in experiment [1] and in experiment [2] was less than 100 nM each time.

Take `CCNC(=O)c1cccc(F)c1Nc1nc(Nc2ccc3c(c2)CCN(CC(=O)N(C)C)CC3)ncc1Cl` [Example 1367, 2-[5-Chloro-2-(3-dimethylcarbamoylmethyl-2,3,4,5-tetrahydro-1H-benzo[d]azepin-7-ylamino)-pyrimidin-4-ylamino]-N-ethyl-3-fluoro-benzamide]: the IC50 in experiment [1] and in experiment [2] was less than 100 nM each time.

`COc1cc(N2CCOCC2)ccc1Nc1nc(Nc2ccc3c(c2)CCN(CC(=O)N(C)C)CC3)ncc1Cl` [Example 1368, 2-{7-[5-Chloro-4-(2-methoxy-4-morpholin-4-yl-phenylamino)-pyrimidin-2-ylamino]-1,2,4,5-tetrahydro-benzo[d]azepin-3-yl}-N,N-dimethyl-acetamide]: the IC50 in experiment [1] was 1000 to 10000 nM; in experiment [2], less than 100 nM.

As to `CNC(=O)c1cccc(F)c1Nc1nc(Nc2ccc3c(c2)CCN(CC(=O)N(C)C)CC3)ncc1Cl` [Example 1369, 2-[5-Chloro-2-(3-dimethylcarbamoylmethyl-2,3,4,5-tetrahydro-1H-benzo[d]azepin-7-ylamino)-pyrimidin-4-ylamino]-3-fluoro-N-methyl-benzamide], the IC50 in experiment [1] and in experiment [2] was less than 100 nM each time.

`CNC(=O)c1cccc(Cl)c1Nc1nc(Nc2ccc3c(c2)CCN(CC(=O)N(C)C)CC3)ncc1Cl` [Example 1370, 3-Chloro-2-[5-chloro-2-(3-dimethylcarbamoylmethyl-2,3,4,5-tetrahydro-1H-benzo[d]azepin-7-ylamino)-pyrimidin-4-ylamino]-N-methyl-benzamide]: the IC50 is less than 100 nM in experiment [1] and 100 to 1000 nM in experiment [2].

In the case of `CN(C)C(=O)CN1CCc2ccc(Nc3ncc(Cl)c(N[C@@H]4CCCC[C@H]4NS(C)(=O)=O)n3)cc2CC1` [Example 1371, 2-{7-[5-Chloro-4-((1R,2R)-2-methanesulfonylamino-cyclohexylamino)-pyrimidin-2-ylamino]-1,2,4,5-tetrahydro-benzo[d]azepin-3-yl}-N,N-dimethyl-acetamide], the figures for the half-inhibitory concentration (IC50) in experiment [1] and in experiment [2] were 100 to 1000 nM and less than 100 nM, respectively.

Turning to `CCNC(=O)c1cccc(F)c1Nc1nc(Nc2ccc3c(c2)CCN(CC(=O)NC)CC3)ncc1Cl` [Example 1372, 2-[5-Chloro-2-(3-methylcarbamoylmethyl-2,3,4,5-tetrahydro-1H-benzo[d]azepin-7-ylamino)-pyrimidin-4-ylamino]-N-ethyl-3-fluoro-benzamide], the IC50 in experiment [1] and in experiment [2] was less than 100 nM in each case.

For the compound `CNC(=O)CN1CCc2ccc(Nc3ncc(Cl)c(Nc4c(Cl)cccc4C(=O)NC)n3)cc2CC1` [Example 1373, 3-Chloro-2-[5-chloro-2-(3-methylcarbamoylmethyl-2,3,4,5-tetrahydro-1H-benzo[d]azepin-7-ylamino)-pyrimidin-4-ylamino]-N-methyl-benzamide], the values for the IC50 in experiment [1] and in experiment [2] were less than 100 nM and 100 to 1000 nM, respectively.

As to `CNC(=O)CN1CCc2ccc(Nc3ncc(Cl)c(N[C@@H]4CCCC[C@H]4NS(C)(=O)=O)n3)cc2CC1` [Example 1374, 2-{7-[5-Chloro-4-((1R,2R)-2-methanesulfonylamino-cyclohexylamino)-pyrimidin-2-ylamino]-1,2,4,5-tetrahydro-benzo[d]azepin-3-yl}-N-methyl-acetamide], the IC50 was 100 to 1000 nM in experiment [1] and less than 100 nM in experiment [2].

For `COCCN1CCc2ccc(Nc3ncc(Cl)c(Nc4ccccc4Cl)n3)cc2CC1` [Example 1376, 5-Chloro-N(4)-(2-chloro-phenyl)-N(2)-[3-(2-methoxy-ethyl)-2,3,4,5-tetrahydro-1H-benzo[d]azepin-7-yl]-pyrimidine-2,4-diamine], the values for the IC50 in experiment [1] and in experiment [2] were 100 to 1000 nM and less than 100 nM, respectively.

For the compound `COCCN1CCc2ccc(Nc3ncc(Cl)c(NC4CCCCC4)n3)cc2CC1` [Example 1377, 5-Chloro-N(4)-cyclohexyl-N(2)-[3-(2-methoxy-ethyl)-2,3,4,5-tetrahydro-1H-benzo[d]azepin-7-yl]-pyrimidine-2,4-diamine], the results for the IC50 in experiment [1] and in experiment [2] were 100 to 1000 nM and less than 100 nM, respectively.

The values are drawn from patent US8148391B2 (Cephalon, Inc., priority 2006, dated 2012).
